According to PMC8162438, “Cancer cell-selective modulation of mitochondrial respiration and metabolism by potent organogold(III) dithiocarbamates” (Chemical Science, 2020):

Tested on: MDA-MB-231
Experiment: Cell fraction gold uptake by GF-AAS
Format: cell-based
Conditions: MDA-MB-231, 5 μM, 24 h
Protocol: We next performed cellular uptake studies to determine what percentage of the compounds were getting into the cell after treatment. Given that most therapeutic targets are localized receptors on the plasma membrane, quantifying the amount of gold compounds in cellular fractions and investigating their mode of uptake is crucial. For whole-cell uptake studies, MDA-MB-231 were treated with all 10 compounds and Auranofin at 5 μM for 24 h (Fig. 5A). Auranofin is the only gold-based therapeutic to be clinically approved, therefor we used this drug as a benchmark for comparison.[67] After treatment, the cells were washed with PBS, centrifuged, and digested with 0.5 mL of conc. HNO3 and diluted with DI water and subjected to ICP-OES analysis. […] Given that these complexes readily react with nucleophilic biological molecules and the lack of accumulation in the nuclear fraction, it is evident that the mechanism of action of this class of compounds is differentiated from the clinically available platinum agents. […]
and treated at a final concentration of 5 µ M and treated for 24 hours as well. The cells were then collected by trypsinization and centrifuged at 2000 rpm for 5 minutes to form a pellet. The pellet was suspended in 1 mL of DMEM, transferred to a 1.5 mL Eppendorf tube, and centrifuged again at 2000 rpm for 5 minutes. […]

C[N+](C)=C1[S][Au-2]2([S]1)[c]1ccccc1Cc1cccc[n+]12.F[P-](F)(F)(F)(F)F (stereo not shown) [2a]
Au content localized in the cytoplasm and total membrane fraction (pellet): > 90%
